The values that follow come from patent US20230143612A1 (Arbutus Biopharma Corporation, priority 2020, published 2023).

PD-L1 His protein / PD-1 Fc protein, sequence (Q9NZQ7 19-238 limits assumed): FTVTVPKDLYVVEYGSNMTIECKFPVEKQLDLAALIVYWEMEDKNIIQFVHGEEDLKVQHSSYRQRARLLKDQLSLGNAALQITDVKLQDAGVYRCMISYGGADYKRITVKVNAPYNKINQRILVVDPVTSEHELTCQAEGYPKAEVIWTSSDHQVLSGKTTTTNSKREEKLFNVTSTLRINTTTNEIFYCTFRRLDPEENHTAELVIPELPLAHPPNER

The test concerns the target PD-L1 His protein / PD-1 Fc protein (Homo sapiens, UniProt Q9NZQ7). Kind of test: HTRF Assay (PD-1/PD-L1 interaction). The class given is binding. The settings on record: PD-L1 His 6 nM, PD-1 Fc 6 nM. The method in brief:
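Compounds tested from 20 μM down to 0.001 μM (3-fold) against 6 nM PD-L1 His and 6 nM PD-1 Fc, 15 min room temperature incubation. Detection after 1 h at room temperature with Tb cryptate anti-6HIS and XL665 anti-human IgG reagents (mixture at 0.35 nM and 6.7 nM), HTRF signal.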
For orientation: TR-FRET usually uses a lanthanide donor and a delayed reading to cut background.
By IC50 is commonly meant the concentration needed to halve the response being measured. Read a low IC50 as greater potency in that assay. `CCNc1nc(-c2cccc(-c3cccc(-c4ccn5c(=O)c(CNC[C@@H]6CCC(=O)N6)cnc5c4)c3C)c2Cl)ccc1CNC[C@@H]1CCC(=O)N1` [Example 74, 8-(2′-Chloro-3′-(6-(ethylamino)-5-(((((S)-5-oxopyrrolidin-2-yl)methyl)amino)methyl)pyridin-2-yl)-2-methyl-[1,1′-biphenyl]-3-yl)-3-(((((S)-5-oxopyrrolidin-2-yl)methyl)amino)methyl)-4H-pyrido[1,2-a]pyrimidin-4-one] registered an IC50 of 15 nM.

For `COc1nc(-c2cccc(-c3cccc(-c4ccn5c(=O)c(CNCCO)cnc5c4)c3Cl)c2Cl)ccc1CNCCO` [Example 75, 8-(2,2′-Dichloro-3′-(5-(((2-hydroxyethyl)amino)methyl)-6-methoxypyridin-2-yl)-[1,1′-biphenyl]-3-yl)-3-(((2-hydroxyethyl)amino)methyl)-4H-pyrido[1,2-a]pyrimidin-4-one], the IC50 came to 3.4 nM.

With `Cc1c(-c2ccn3c(=O)c(CNC[C@@H]4CCC(=O)N4)cnc3c2)cccc1-c1cccc(-c2ccc3c(c2)CCC3NC[C@@H]2CCC(=O)N2)c1Cl` (stereo partly drawn) [Example 76, 8-(2′-Chloro-2-methyl-3′-(1-((((S)-5-oxopyrrolidin-2-yl)methyl)amino)-2,3-dihydro-1H-inden-5-yl)-[1,1′-biphenyl]-3-yl)-3-(((((S)-5-oxopyrrolidin-2-yl)methyl)amino)methyl)-4H-pyrido[1,2-a]pyrimidin-4-one], the concentration for half-maximal inhibition (IC50) came to 3.4 nM.

On to `COc1cc(-c2cccc(-c3cccc(-c4ccn5c(=O)c(CNC[C@@H]6CCC(=O)N6)cnc5c4)c3C)c2Cl)ncc1CNC[C@@H]1CCC(=O)N1` [Example 77, 8-[3-[2-Chloro-3-[4-methoxy-5-[[[(2S)-5-oxopyrrolidin-2-yl]methylamino]methyl]-2-pyridyl]phenyl]-2-methyl-phenyl]-3-[[[(2S)-5-oxopyrrolidin-2-yl]methylamino]methyl]pyrido[1,2-a]pyrimidin-4-one], for which the IC50 was found to be 6.3 nM.

For the compound `Cc1c(-c2ccn3c(=O)c(CNC[C@@H]4CCC(=O)N4)cnc3c2)cccc1-c1cccc(-c2ccc(CNC[C@@H]3CCC(=O)N3)c(C(F)(F)F)n2)c1Cl` [Example 78, 8-(2′-Chloro-2-methyl-3′-(5-(((((S)-5-oxopyrrolidin-2-yl)methyl)amino)methyl)-6-(trifluoromethyl)pyridin-2-yl)-[1,1′-biphenyl]-3-yl)-3-(((((S)-5-oxopyrrolidin-2-yl)methyl)amino)methyl)-4H-pyrido[1,2-a]pyrimidin-4-one], inhibition was half-maximal at 16 nM (IC50).

Consider `Cc1nc(-c2cccc(-c3cccc(-c4ccn5c(=O)c(CNC[C@@H]6CCC(=O)N6)cnc5c4)c3C)c2Cl)ccc1CNC[C@@H]1CCC(=O)N1` [Example 79, 8-(2′-Chloro-2-methyl-3′-(6-methyl-5-(((((S)-5-oxopyrrolidin-2-yl)methyl)amino)methyl)pyridin-2-yl)-[1,1′-biphenyl]-3-yl)-3-(((((S)-5-oxopyrrolidin-2-yl)methyl)amino)methyl)-4H-pyrido[1,2-a]pyrimidin-4-one], for which the IC50 amounted to 2.8 nM.

`COc1nc(-c2cccc(-c3cccc(-c4ccn5c(=O)c(CNCCO)cnc5c4)c3Cl)c2Cl)ccc1CNC[C@@H]1CCC(=O)N1` [Example 80, (S)-8-(2,2′-Dichloro-3′-(6-methoxy-5-((((5-oxopyrrolidin-2-yl)methyl)amino)methyl)pyridin-2-yl)-[1,1′-biphenyl]-3-yl)-3-(((2-hydroxyethyl)amino)methyl)-4H-pyrido[1,2-a]pyrimidin-4-one] gave an IC50 of 4.2 nM.

In turn, `COc1nc(-c2cccc(-c3cccc(-c4ccn5c(=O)c(CNCCNC(C)=O)cnc5c4)c3Cl)c2Cl)ccc1CNC[C@@H]1CCC(=O)N1` [Example 81, (S)—N-(2-(((8-(2,2′-Dichloro-3′-(6-methoxy-5-((((5-oxopyrrolidin-2-yl)methyl)amino)methyl)pyridin-2-yl)-[1,1′-biphenyl]-3-yl)-4-oxo-4H-pyrido[1,2-a]pyrimidin-3-yl)methyl)amino)ethyl)acetamide] registered an IC50 of 8.3 nM.

With `COc1nc(-c2cccc(-c3cccc(-c4ccn5nc(CNC[C@@H]6CCC(=O)N6)cc5n4)c3Cl)c2Cl)ccc1CNC[C@@H]1CCC(=O)N1` [Example 82, (S)-5-((((6-(2,2′-Dichloro-3′-(2-(((((S)-5-oxopyrrolidin-2-yl)methyl)amino)methyl)pyrazolo[1,5-a]pyrimidin-5-yl)-[1,1′-biphenyl]-3-yl)-2-methoxypyridin-3-yl)methyl)amino)methyl)pyrrolidin-2-one], the IC50 was 9.9 nM.

Take `COc1nc(-c2cccc(-c3cccc(-c4ccn5c(=O)c(CN6CC[C@H](C(=O)O)C6)cnc5c4)c3Cl)c2Cl)ccc1CN1CC(CO)C1` [Example 83, (S)-1-((8-(2,2′-Dichloro-3′-(5-((3-(hydroxymethyl)azetidin-1-yl)methyl)-6-methoxypyridin-2-yl)-[1,1′-biphenyl]-3-yl)-4-oxo-4H-pyrido[1,2-a]pyrimidin-3-yl)methyl)pyrrolidine-3-carboxylic acid]: half-maximal inhibition (IC50) required 0.4 nM.

`COc1nc(-c2cccc(-c3cccc(-c4ccn5c(=O)c(CN6CC(C(=O)O)C6)cnc5c4)c3Cl)c2Cl)ccc1CN1CC(CO)C1` [Example 84, 1-((8-(2,2′-Dichloro-3′-(5-((3-(hydroxymethyl)azetidin-1-yl)methyl)-6-methoxypyridin-2-yl)-[1,1′-biphenyl]-3-yl)-4-oxo-4H-pyrido[1,2-a]pyrimidin-3-yl)methyl)azetidine-3-carboxylic acid] returned an IC50 of 0.3 nM.

`COc1nc(-c2cccc(-c3cccc(-c4ccn5c(=O)c(CNC[C@@H]6CCC(=O)N6)ccc5c4)c3Cl)c2Cl)ccc1CNC[C@@H]1CCC(=O)N1` [Example 85, 8-(2,2′-Dichloro-3′-(6-methoxy-5-(((((S)-5-oxopyrrolidin-2-yl)methyl)amino)methyl)pyridin-2-yl)-[1,1′-biphenyl]-3-yl)-3-(((((S)-5-oxopyrrolidin-2-yl)methyl)amino)methyl)-4H-quinolizin-4-one] gave an IC50 of 2.5 nM.

As for `COc1nc(-c2cc(F)cc(-c3cccc(-c4ccn5c(=O)c(CNC[C@@H]6CCC(=O)N6)cnc5c4)c3Cl)c2Cl)ccc1CNC[C@@H]1CCC(=O)N1` [Example 86, 8-(2,2′-Dichloro-5′-fluoro-3′-(6-methoxy-5-(((((S)-5-oxopyrrolidin-2-yl)methyl)amino)methyl)pyridin-2-yl)-[1,1′-biphenyl]-3-yl)-3-(((((S)-5-oxopyrrolidin-2-yl)methyl)amino)methyl)-4H-pyrido[1,2-a]pyrimidin-4-one], the IC50 came out at 4.1 nM.

The compound `O=C1CC[C@@H](CNCc2ccc(-c3cccc(-c4cccc(-c5ccn6c(=O)c(CNC[C@@H]7CCC(=O)N7)cnc6c5)c4Cl)c3Cl)cc2OC(F)(F)F)N1` [Example 87, 8-(2,2′-dichloro-4″-(((((S)-5-oxopyrrolidin-2-yl)methyl)amino)methyl)-3″-(trifluoromethoxy)-[1,1′:3′,1″-terphenyl]-3-yl)-3-(((((S)-5-oxopyrrolidin-2-yl)methyl)amino)methyl)-4H-pyrido[1,2-a]pyrimidin-4-one] displayed an IC50 of 2.6 nM.
